Assay results from patent US20080076824A1, “Compounds That Inhibit Replication Of Human Immunodeficiency Virus” (priority 2004, published 2008).
In brackets after ≈: the same amount, converted by molar mass.

Tests used:
[1] = test system: Herpes simplex virus-1 TK^− KOS ACV^r; settings: HEL; reduces virus-induced cytopathogenicity by 50%
Vaccinia virus = settings: HEL; reduces virus-induced cytopathogenicity by 50%
[2] = test system: Herpes simplex virus-2 (G); settings: HEL; reduces virus-induced cytopathogenicity by 50%
[3] = test system: Herpes simplex virus-1 (KOS); settings: HEL; reduces virus-induced cytopathogenicity by 50%
[4] = test system: Vesicular stomatitis virus; settings: HEL; reduces virus-induced cytopathogenicity by 50%
[5] = Stability of synthetic compounds (no method given); format: physicochemical
HIV (SF2 virus) = assay: HIV infectivity assay, SF2-infected H9 cells, reverse transcriptase (RT) quantification in supernatant; format: cell-based

Row | SMILES | Minimum inhibitory concentration Herpes simplex virus-1 TK^− KOS ACV^r [1] [µg/mL] | Minimum inhibitory concentration Vaccinia virus (Vaccinia virus) [µg/mL] | Minimum inhibitory concentration Herpes simplex virus-2 (G) [2] [µg/mL] | Minimum inhibitory concentration Herpes simplex virus-1 (KOS) [3] [µg/mL] | Minimum inhibitory concentration Vesicular stomatitis virus [4] [µg/mL] | stability [5] | HIV replication at 25 μM (HIV (SF2 virus); 25 μM) | IC50 (HIV (SF2 virus); Human immunodeficiency virus 1, H9, 264 h, RT quantification, day 11, read-out: IC50) [µM]
1 | Nc1nc2c(ncn2COCCO)c(=O)[nH]1 [ACG, reference compound] | 9.6 (≈ 42.6 µM) | >400 | 0.0768 (≈ 0.341 µM) | 0.0768 (≈ 0.341 µM) | >400 |  |  | 
2 | Nc1nc2c(ncn2COC(CO)CO)c(=O)[nH]1 [DHPG, reference compound] | 0.48 (≈ 1.88 µM) | 60 (≈ 235 µM) | 0.0192 (≈ 0.0752 µM) | 0.0038 (≈ 0.0149 µM) | >400 |  |  | 
3 | COC(N)C(N)=O (stereo not drawn) [Formula G, alpha-methoxyglycinamide] |  |  |  |  |  | more stable than alpha-hydroxyglycinamide |  | 
4 | CC(C)C(N)C(=O)NC(O)C(N)=O [Formula Y, N-L-Valyl-α-Hydroxyglycinamide] |  |  |  |  |  | stable | neglible levels | ~16
